Like-named read-outs stand apart in the source and are kept apart here.
How the values were obtained:
[1] = test system: TGFβ-stimulated NHLF (normal human lung fibroblasts); experiment: cells; format: cell-based; conditions: for IC50: Homo sapiens, Fibroblast; for cell viability / cell death / inhibition of αSMA (FIG. 2): TGF-beta1-stimulated human lung fibroblasts
Description: Normal human lung fibroblasts from a healthy donor (passage 5) were seeded in 96-well culture plates with 50,000 cells per cm^2 in DMEM culture medium with 10% FBS and 1% penicillin-streptomycin. […]. The cells were incubated for one hour before 0.123 ng/ml TGF-beta1 was added on top of the compound/vehicle treatment and the cells were incubated for 24 hours.
After 24 hours the medium was collected and analysed for IL-6 and the cells were either lysed for RNA isolation, DNA-synthesis and TaqMan quantitative PCR or fixated and stained for alpha-smooth muscle actin (αSMA) and with Hoechst nuclear staining. The percentage of cells staining positive for αSMA and thereby displaying the myofibroblast phenotype was determined using high content image analysis. The Ct-values from the quantitative PCR were normalised against the geomean Ct values of two reference-genes and presented as fold-expression over those reference genes (2^-delta Ct).

[2] = test system: Airway basal cells (ABC) from IPF patients; experiment: Organoid formation assay; format: cell-based, human; conditions: for organoid formation of airway basal cells (FIGS. 4, 5 and 6): saracatinib 8, 25, 75, 210 or 600 nM, pirfenidone 1 mM, nintedanib 1 μM
Description: Airway Basal Cells (ABCs) either derived from IPF patients or Healthy Volunteers (HV) were cultured in Matrigel® (Corning in a transwell system with or without lung fibroblasts either derived from patients with IPF or normal lung for up-to 35 days in the incubator (5% CO2, 37° C.)).

[3] = IPF patients; cited from earlier work
[4] = cited from earlier work
[5] = IPF patients, cited from earlier work
[6] = Pharmacokinetics (PK) of saracatinib in the bleomycin model; format: in vivo; conditions: mouse, mice; for Cmax: Day 21, dosed 1 hour prior to terminal blood draw; for concentration at 21 day: Day 21, not dosed before blood draw, read-out: Cmin +/− SD
[7] = test system: bleomycin (Bleo) induced lung injury and fibrosis; experiment: Bleomycin model, lung hydroxyproline levels; format: in vivo, mice; conditions: saracatinib 1, 3 or 10 mg/kg BID vs pirfenidone 200 mg/kg BID and nintedanib 30 mg/kg BID, from day 7, day 21
Description: Bleomycin Sulfate was obtained from Sigma-Aldrich. The IU conversion to enzyme units (U) is approximately 1.5-2 U/mg. For delivery of 4 U/kg in 50 μL, a solution of […] was prepared in 0.9% NaCl. Bleomycin or vehicle was dosed on Day 0 intranasally. […] Body weights and clinical observations were recorded on days 7, 14, and 21. On day 21, mice were euthanized by cervical dislocation. One side of lung tissue was dissected and analyzed for hydroxyproline levels as an indicator of local collagen deposition, and the other side lung was fixed in Formalin for histopathology (Quantitative staining with sirius red).

[8] = test system: human primary cell-based systems (BioMAP); experiment: DiscoverX BioMAP Combo ELECT panel, relative protein expression; conditions: saracatinib 3.3 μM, relative to vehicle control
Excerpt: BioMAP panels consist of human primary cell-based systems designed to model different aspects of the human body in an in vitro format. The 12 systems available in the Diversity PLUS panel allow test agent characterization in an unbiased way across a broad set of systems modelling various human disease states. BioMAP systems are constructed with one or more primary cell types from healthy human donors, with stimuli (such as cytokines or growth factors) added to capture relevant signalling networks that naturally occur in human tissue or pathological conditions. Systems recapitulate aspects of the systemic immune response including monocyte-driven Th1 inflammation (LPS system) or T cell stimulation (SAg system), chronic Th1 inflammation driven by macrophage activation (IMphg system) and the T cell-dependent activation of B cells that occurs in germinal centers (BT system). The BE3C system (Th1) and the BF4T system (Th2) represent airway inflammation of the lung, while the MyoF system models myofibroblast-lung tissue remodelling.
Each test agent generates a signature BioMAP profile that is created from the changes in protein biomarker readouts within individual system environments. Biomarker readouts (7-17 per system) are selected for therapeutic and biological relevance, are predictive for disease outcomes or specific drug effects and are validated using agents with known mechanism of action (MoA). Each readout is measured quantitatively by immune-based methods that detect protein (e.g., ELISA) or functional assays that measure proliferation and viability. BioMAP readouts are diverse and include cell surface receptors, cytokines, chemokines, matrix molecules and enzymes.
In the Combo ELECT panel, a 4×4 combination array is created to test all mixtures of two serially diluted single test agents/drugs.

[9] = Saracatinib AD Phase IIa (52 weeks), safety and tolerability; format: in vivo, human; conditions: Alzheimer's Disease patients
Lyn = Lyn (Homo sapiens, UniProt P07948); conditions: cited from earlier work
Lyn, sequence (P07948 whole entry): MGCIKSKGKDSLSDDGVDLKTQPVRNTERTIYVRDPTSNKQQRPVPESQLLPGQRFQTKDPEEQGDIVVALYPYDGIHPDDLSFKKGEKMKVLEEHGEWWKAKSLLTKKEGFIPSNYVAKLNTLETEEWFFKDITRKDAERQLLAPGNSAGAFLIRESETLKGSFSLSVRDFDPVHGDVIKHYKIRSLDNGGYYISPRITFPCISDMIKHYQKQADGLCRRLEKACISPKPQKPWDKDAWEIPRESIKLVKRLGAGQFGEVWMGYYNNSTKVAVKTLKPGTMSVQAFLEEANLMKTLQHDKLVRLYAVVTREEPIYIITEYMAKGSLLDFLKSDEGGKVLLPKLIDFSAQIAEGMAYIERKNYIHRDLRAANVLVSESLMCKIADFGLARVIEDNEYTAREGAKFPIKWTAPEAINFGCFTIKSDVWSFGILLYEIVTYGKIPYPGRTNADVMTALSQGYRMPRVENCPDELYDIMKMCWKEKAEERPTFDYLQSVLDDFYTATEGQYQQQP

[10] = 24 h, read-out: Mean IC50 ACTA2 mRNA
[11] = 24 h, read-out: Mean IC50 COL1A1 mRNA
[12] = 24 h, read-out: Mean IC50 COL3A1 mRNA
[13] = 24 h, read-out: Mean IC50 FN1 mRNA
[14] = 24 h, read-out: Mean IC50 IL-6 protein
[15] = 100 mg or 125 mg per day, 52 weeks, n = 79

Compound: COC(=O)c1ccc2c(c1)NC(=O)/C2=C(\Nc1ccc(N(C)C(=O)CN2CCN(C)CC2)cc1)c1ccccc1 [Nintedanib]
- IC50 [1, 10]: 1750 nM
- IC50 [1, 11]: 536 nM
- IC50 [1, 12]: 725 nM
- IC50 [1, 13]: 624 nM
- IC50 [1, 14]: 311 nM
- IC50 ([1]; 24 h, read-out: Mean IC50 αSMA): 601 nM
- cell viability / cell death [1]: some evidence of cell death
- inhibition of αSMA (FIG. 2) [1]: inhibited αSMA, but at supra-therapeutic concentrations
- organoid formation of airway basal cells (FIGS. 4, 5 and 6) [2]: little to no effect
- Treatment Discontinuations, clinical studies IPF [3]: 21% (15%)
- Treatment Discontinuations, Real-World data [4]: 26.3%

Compound: Cc1ccc(=O)n(-c2ccccc2)c1 [Pirfenidone]
- IC50 ([1]; TGFβ-stimulated NHLF, healthy donor 197 (n = 3), 24 hours, read-out: Mean IC50 ACTA2 mRNA): > 10000 nM
- IC50 ([1]; TGFβ-stimulated NHLF, healthy donor 197 (n = 3), 24 hours, read-out: Mean IC50 COL1A1 mRNA): > 10000 nM
- IC50 ([1]; TGFβ-stimulated NHLF, healthy donor 197 (n = 3), 24 hours, read-out: Mean IC50 COL3A1 mRNA): > 10000 nM
- IC50 ([1]; TGFβ-stimulated NHLF, healthy donor 197 (n = 3), 24 hours, read-out: Mean IC50 FN1 mRNA): > 10000 nM
- IC50 ([1]; TGFβ-stimulated NHLF, healthy donor 197 (n = 3), 24 hours, read-out: Mean IC50 IL-6 protein): > 10000 nM
- IC50 ([1]; TGFβ-stimulated NHLF, healthy donor 197 (n = 3), 24 hours, read-out: Mean IC50 αSMA): > 10000 nM
- cell viability / cell death [1]: some evidence of cell death
- inhibition of αSMA (FIG. 2) [1]: inhibited αSMA, but at supra-therapeutic concentrations
- organoid formation of airway basal cells (FIGS. 4, 5 and 6) [2]: little to no effect
- Anorexia ([5]; 52 weeks, n = 623): 13%
- Diarrhea ([5]; 52 weeks, n = 623): 24.6%
- Nausea ([5]; 52 weeks, n = 623): 35.5%
- Vomiting ([5]; 52 weeks, n = 623): 12.7%
- Weight Decrease ([5]; 52 weeks, n = 623): 10%
- Decreased Appetite ([5]; Pirfenidone Medical Review, pirfenidone n = 345): 9%^3
- Treatment Discontinuations, clinical studies IPF [5]: 14.6% (9.6%)
- Treatment Discontinuations, Real-World data [4]: 20.9%

Compound: CN1CCN(CCOc2cc(OC3CCOCC3)c3c(Nc4c(Cl)ccc5c4OCO5)ncnc3c2)CC1 [Saracatinib, N-(5-chlorobenzo[d][1,3]dioxol-4-yl)-7-(2-(4-methylpiperazin-1-yl)ethoxy)-5-((tetrahydro-2H-pyran-4-yl)oxy)quinazolin-4-amine]
- Cmax ([6]; 1 mg/kg BID oral gavage): 71.5 nM
- concentration at 21 day ([6]; 1 mg/kg BID oral gavage): 2.52 nM
- Cmax ([6]; 3 mg/kg BID oral gavage): 139 nM
- concentration at 21 day ([6]; 3 mg/kg BID oral gavage): 8.41 nM
- Cmax ([6]; 10 mg/kg BID oral gavage): 390 nM
- concentration at 21 day ([6]; 10 mg/kg BID oral gavage): 31.8 nM
- hydroxyproline levels after bleomycin induced lung injury and fibrosis (FIG. 1) [7]: compares favourably to pirfenidone (at much lower doses) and is potentially superior to nintedanib at clinically relevant doses
- IC50 [1, 10]: 186 nM
- IC50 [1, 11]: 1010 nM
- IC50 [1, 12]: 7990 nM
- IC50 [1, 13]: 526 nM
- IC50 [1, 14]: 128 nM
- IC50 ([1]; 24 h, read-out: Mean IC50 αSMA): 185 nM
- cell viability / cell death [1]: without impacting cell viability
- inhibition of αSMA (FIG. 2) [1]: dose-dependent inhibition of αSMA
- cytotoxicity ([2]; ABC organoids, saracatinib 8 to 600 nM): non-cytotoxic
- organoid formation of airway basal cells (FIGS. 4, 5 and 6) [2]: differentiated and uniquely efficacious
- expression of MMP-9 (FIG. 7) [8]: decreased expression
- expression of N-cadherin (FIG. 7) [8]: decreased expression
- expression of TIMP-1 (FIG. 7) [8]: decreased expression
- expression of VCAM-1 (FIG. 7) [8]: increased expression
- expression of a-SMA (FIG. 7) [8]: increased expression
- expression of sIL-6 (FIG. 7) [8]: decreased expression
- expression of sIL-8 (FIG. 7) [8]: decreased expression
- expression of sVEGF (FIG. 7) [8]: decreased expression
- Treatment Discontinuations, clinical studies AD [9]: 8.2% (1.2%)
- Anorexia [9, 15]: 3%
- Decreased Appetite [9, 15]: 9%
- Diarrhea [9, 15]: 27.8%
- Nausea [9, 15]: 12.7%
- Vomiting [9, 15]: 5.1%
- Weight Decrease [9, 15]: 10%
- IC50 (Lyn): 5 nM

From patent US20220117966A1, “METHOD OF TREATING FIBROSIS” (AstraZeneca AB, priority 2019, published 2022)
